Measured values reported in patent US10689354B2, “Aminoazole derivative” (Teijin Pharma Limited, priority 2015, dated 2020).

Experiments:
[1] = biological target: T1, androgen receptor (AR-LBD) (Rattus norvegicus, UniProt P15207); experiment: Evaluation of androgen receptor affinity (PolarScreen Androgen Receptor Competitor Assay Kit, Red; fluorescence polarization); details: 22° C. for 5 hours, relative to binding rate of 1 μM DHT, read-out: AR affinity (pEC50) (converted)
T1 construct: 5 μL of 2×AR-LBD/Fluoromone AL Red Complex contained in the kit; purchased Invitrogen
T1 sequence (P15207 651-882 limits assumed): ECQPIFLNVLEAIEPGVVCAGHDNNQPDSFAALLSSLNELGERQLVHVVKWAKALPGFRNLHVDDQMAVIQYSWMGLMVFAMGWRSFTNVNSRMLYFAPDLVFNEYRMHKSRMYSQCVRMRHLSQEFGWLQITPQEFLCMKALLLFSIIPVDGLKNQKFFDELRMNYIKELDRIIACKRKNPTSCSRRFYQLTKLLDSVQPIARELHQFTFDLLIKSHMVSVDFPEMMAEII
Method in brief: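 Test compound and the 2× AR-LBD/Fluoromone AL Red complex were combined in duplicate wells. After reacting 5 h at 22° C, polarization was measured. pEC50 was derived by 4-parameter fitting, normalizing to binding obtained with 1 μM dihydrotestosterone.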

human androgen receptor = biological target: T2, human androgen receptor (Homo sapiens, UniProt P10275); experiment: Reporter assay of an androgen receptor responsive sequence (luciferase, transiently transfected HEK293 cells); assay type: cell-based; details: 24 hours incubation, relative to activity of 100 nM DHT, read-out: AR transcriptive activity (pEC50) (converted)
T2 construct: expressed in transfected cells; host or cells: HEK293
T2 sequence (P10275 1-920): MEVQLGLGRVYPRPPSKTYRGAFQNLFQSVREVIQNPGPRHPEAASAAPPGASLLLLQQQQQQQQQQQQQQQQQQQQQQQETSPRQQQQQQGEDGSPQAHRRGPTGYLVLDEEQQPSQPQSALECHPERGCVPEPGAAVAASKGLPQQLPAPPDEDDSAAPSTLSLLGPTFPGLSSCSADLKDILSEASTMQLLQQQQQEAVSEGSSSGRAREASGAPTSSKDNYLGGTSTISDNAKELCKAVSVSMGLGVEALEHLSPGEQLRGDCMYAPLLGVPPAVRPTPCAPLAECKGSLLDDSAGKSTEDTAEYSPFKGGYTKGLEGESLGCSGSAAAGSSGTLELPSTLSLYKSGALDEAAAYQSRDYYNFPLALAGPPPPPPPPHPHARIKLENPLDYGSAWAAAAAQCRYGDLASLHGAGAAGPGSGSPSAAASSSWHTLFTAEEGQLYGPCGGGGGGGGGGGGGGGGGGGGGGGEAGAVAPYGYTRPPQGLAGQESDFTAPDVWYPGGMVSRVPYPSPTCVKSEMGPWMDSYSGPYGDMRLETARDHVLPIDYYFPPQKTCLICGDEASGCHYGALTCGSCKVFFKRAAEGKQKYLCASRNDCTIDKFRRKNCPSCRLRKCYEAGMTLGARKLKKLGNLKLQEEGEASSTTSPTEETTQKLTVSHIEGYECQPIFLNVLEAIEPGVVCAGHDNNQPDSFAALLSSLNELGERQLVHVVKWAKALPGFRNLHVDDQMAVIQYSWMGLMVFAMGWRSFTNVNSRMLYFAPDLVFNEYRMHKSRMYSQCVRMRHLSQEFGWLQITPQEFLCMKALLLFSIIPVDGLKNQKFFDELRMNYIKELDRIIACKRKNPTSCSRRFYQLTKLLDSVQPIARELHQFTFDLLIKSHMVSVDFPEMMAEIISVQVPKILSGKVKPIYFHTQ
Method in brief: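 Agonism scored as pEC50, fitted by 4-parameter curve against the response to 100 nM DHT, from dual-luciferase readout after 24 h compound treatment. Cells were HEK293 co-transfected (3 h) with human AR expression vector, androgen-responsive firefly reporter and Renilla control, in charcoal-stripped serum.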

| SMILES | EC50 [1] | EC50 (human androgen receptor) |
| --- | --- | --- |
| Cc1sc(N(CCc2ccccc2O)c2ccc(C#N)cc2)nc1C(=O)NS(C)(=O)=O [Compound 379, 2-[4-cyano-N-[2-(2-hydroxyphenyl)ethyl]anilino]-5-methyl-N-methylsulfonyl-thiazole-4-carboxamide] | 25.1 nM | 251 nM |
| Cc1sc(N(Cc2ccccc2)c2ccc(C#N)cc2)nc1C(=O)NS(=O)(=O)CS(C)(=O)=O [Compound 382, 2-(N-benzyl-4-cyano-anilino)-5-methyl-N-(methylsulfonylmethylsulfonyl)thiazole-4-carboxamide] | 79.4 nM | > 10000 nM |
| CCOC(=O)CS(=O)(=O)NC(=O)c1nc(N(Cc2ccccc2)c2ccc(C#N)cc2)sc1C [Compound 384, ethyl 2-[[2-(N-benzyl-4-cyano-anilino)-5-methyl-thiazole-4-carbonyl]sulfamoyl]acetate] | 39.8 nM | 251 nM |
| Cc1sc(N(Cc2ccccc2)c2ccc(C#N)cc2)nc1C(=O)NS(=O)(=O)CCC(F)(F)F [Compound 387, 2-(N-benzyl-4-cyano-anilino)-5-methyl-N-(3,3,3-trifluoropropylsulfonyl)thiazole-4-carboxamide] | 63.1 nM | 398 nM |
| [2H]c1c([2H])c([2H])c(C([2H])([2H])N(c2ccc(C#N)cc2)c2nc(C(=O)NS(C)(=O)=O)c(C)s2)c([2H])c1[2H] [Compound 388, 2-(4-cyano-N-[dideuterio-(2,3,4,5,6-pentadeuteriophenyl)methyl]anilino)-5-methyl-N-methylsulfonyl-thiazole-4-carboxamide] | 50.1 nM | 63.1 nM |
| Cc1sc(N(Cc2cccc3cccnc23)c2ccc(C#N)cc2)nc1C(=O)NS(C)(=O)=O [Compound 390, 2-[4-cyano-N-(8-quinolylmethyl)anilino]-5-methyl-N-methylsulfonyl-thiazole-4-carboxamide] | 126 nM | 200 nM |
| Cc1sc(N(Cc2ccccc2)c2ccc(C#N)cc2)nc1C(=O)NS(=O)(=O)Cc1ccccn1 [Compound 396, 2-(N-benzyl-4-cyano-anilino)-5-methyl-N-(2-pyridylmethylsulfonyl)thiazole-4-carboxamide] | 316 nM | 6310 nM |
| Cc1sc(N(CCc2cccc(O)c2)c2ccc(C#N)cc2)nc1C(=O)NS(C)(=O)=O [Compound 401, 2-[4-cyano-N-[2-(3-hydroxyphenyl)ethyl]anilino]-5-methyl-N-methylsulfonyl-thiazole-4-carboxamide] | 158 nM | 1580 nM |
| Cc1sc(N(Cc2ccc3ncccc3c2)c2ccc(C#N)cc2)nc1C(=O)NS(C)(=O)=O [Compound 403, 2-[4-cyano-N-(6-quinolylmethyl)anilino]-5-methyl-N-methylsulfonyl-thiazole-4-carboxamide] | 251 nM | 251 nM |
| Cc1sc(N(Cc2ccc3nccnc3c2)c2ccc(C#N)cc2)nc1C(=O)NS(C)(=O)=O [Compound 404, 2-[4-cyano-N-(quinoxalin-6-ylmethyl)anilino]-5-methyl-N-methylsulfonyl-thiazole-4-carboxamide] | 1000 nM | 3160 nM |
| Cc1sc(N(CCC2CCCCC2)c2ccc(C#N)cc2)nc1C(=O)NS(C)(=O)=O [Compound 407, 2-[4-cyano-N-(2-cyclohexylethyl)anilino]-5-methyl-N-methylsulfonyl-thiazole-4-carboxamide] | 50.1 nM | 200 nM |
| Cc1sc(N(Cc2ccc(Cl)cc2Cl)c2ccc(C#N)cc2)nc1C(=O)NS(C)(=O)=O [Compound 413, 2-[4-cyano-N-[(2,4-dichlorophenyl)methyl]anilino]-5-methyl-N-methylsulfonyl-thiazole-4-carboxamide] | 25.1 nM | 501 nM |
| Cc1sc(N(Cc2cc(F)cc(C(F)(F)F)c2)c2ccc(C#N)cc2)nc1C(=O)NS(C)(=O)=O [Compound 416, 2-[4-cyano-N-[[3-fluoro-5-(trifluoromethyl)phenyl]methyl]anilino]-5-methyl-N-methylsulfonyl-thiazole-4-carboxamide] | 25.1 nM | 158 nM |
| COc1c(F)c(CN(c2ccc(C#N)cc2)c2nc(C(=O)NS(C)(=O)=O)c(C)s2)c(F)c(F)c1C(F)(F)F [Compound 418, 2-[4-cyano-N-[[2,3,6-trifluoro-5-methoxy-4-(trifluoromethyl)phenyl]methyl]anilino]-5-methyl-N-methylsulfonyl-thiazole-4-carboxamide] | 50.1 nM | 158 nM |
| Cc1sc(N(Cc2ccc([S+]([O-])C(F)(F)F)cc2)c2ccc(C#N)cc2)nc1C(=O)NS(C)(=O)=O (stereo not drawn) [Compound 419, 2-[4-cyano-N-[[4-(trifluoromethylsulfinyl)phenyl]methyl]anilino]-5-methyl-N-methylsulfonyl-thiazole-4-carboxamide] | 63.1 nM | 631 nM |

Next, values leading:

| EC50 [1] | EC50 (human androgen receptor) | SMILES |
| --- | --- | --- |
| 126 nM | > 10000 nM | Cc1sc(N(Cc2ccccc2)c2ccc(C#N)cc2)nc1C(=O)NS(=O)(=O)Cc1cccc(Cl)c1 [Compound 386, 2-(N-benzyl-4-cyano-anilino)-N-[(3-chlorophenyl)methylsulfonyl]-5-methyl-thiazole-4-carboxamide] |
| 79.4 nM | > 10000 nM | Cc1sc(N(Cc2ccccc2)c2ccc(C#N)cc2)nc1C(=O)NS(=O)(=O)CCc1ccccc1 [Compound 391, 2-(N-benzyl-4-cyano-anilino)-5-methyl-N-(2-phenylethylsulfonyl)thiazole-4-carboxamide] |
| 31.6 nM | 398 nM | Cc1sc(N(Cc2ccc(OCc3ccccc3)cc2)c2ccc(C#N)cc2)nc1C(=O)NS(C)(=O)=O [Compound 393, 2-[N-[(4-benzyloxyphenyl)methyl]-4-cyano-anilino]-5-methyl-N-methylsulfonyl-thiazole-4-carboxamide] |
| 100 nM | 158 nM | Cc1sc(N(Cc2ccccc2)c2ccc(C#N)cc2)nc1C(=O)NS(=O)(=O)Cc1ccncc1 [Compound 395, 2-(N-benzyl-4-cyano-anilino)-5-methyl-N-(4-pyridylmethylsulfonyl)thiazole-4-carboxamide] |
| 63.1 nM | 126 nM | Cc1sc(N(Cc2ccccc2)c2ccc(C#N)cc2)nc1C(=O)NS(=O)(=O)Cc1cccnc1 [Compound 397, 2-(N-benzyl-4-cyano-anilino)-5-methyl-N-(3-pyridylmethylsulfonyl)thiazole-4-carboxamide] |
| 251 nM | > 10000 nM | COc1cccc(CCN(c2ccc(C#N)cc2)c2nc(C(=O)NS(C)(=O)=O)c(C)s2)c1 [Compound 399, 2-[4-cyano-N-[2-(3-methoxyphenyl)ethyl]anilino]-5-methyl-N-methylsulfonyl-thiazole-4-carboxamide] |
| 631 nM | > 10000 nM | COc1ccc(CCN(c2ccc(C#N)cc2)c2nc(C(=O)NS(C)(=O)=O)c(C)s2)cc1 [Compound 400, 2-[4-cyano-N-[2-(4-methoxyphenyl)ethyl]anilino]-5-methyl-N-methylsulfonyl-thiazole-4-carboxamide] |
| 794 nM | 2510 nM | Cc1sc(N(CCC2CCCC2O)c2ccc(C#N)cc2)nc1C(=O)NS(C)(=O)=O (stereo not drawn) [Compound 406, 2-[4-cyano-N-[2-(2-hydroxycyclopentyl)ethyl]anilino]-5-methyl-N-methylsulfonyl-thiazole-4-carboxamide] |
| 316 nM | > 10000 nM | Cc1sc(N(Cc2cc(C(F)(F)F)ccc2Cl)c2ccc(C#N)cc2)nc1C(=O)NS(C)(=O)=O [Compound 417, 2-[N-[[2-chloro-5-(trifluoromethyl)phenyl]methyl]-4-cyano-anilino]-5-methyl-N-methylsulfonyl-thiazole-4-carboxamide] |
